Assay results reported in the OligoGym collection.
Where “and” joins values, the source holds several entries; their conditions need not be identical. Identical values can stand only once. After the bases stand the sugars from the 5' end (letter, count) and the backbone: PS all phosphorothioate, else s phosphorothioate and o phosphodiester by linkage. Methylation of C is not given here. e = 2'-O-(2-methoxyethyl) (MOE); k = constrained ethyl (cEt); d = 2'-deoxy (DNA)

The sequences below were run against IRF4. Settings: ASO, MM.1R, 0.0625 µM.

Sequence | target mRNA inhibition
AGAACATTACGAGAGG (sugars k3 d10 k3, PS) | 2% and 12%
AGCAGTGATGTCAGGT (sugars kkdddddddddekeke, PS) | 32%

Same assay, conditions: ASO, MM.1R, 0.074 µM

Sequence | target mRNA inhibition [%]
AGCACTGGCATTGAGA (sugars k3 d10 k3, PS) | 4

Same assay, conditions: ASO, MM.1R, 0.222 µM

Sequence | target mRNA inhibition [%]
AGCACTGGCATTGAGA (sugars k3 d10 k3, PS) | 0

Same assay, conditions: ASO, MM.1R, 0.25 µM

Sequence | target mRNA inhibition
AGAACATTACGAGAGG (sugars k3 d10 k3, PS) | 16% and 20%
AGCAGTGATGTCAGGT (sugars kkdddddddddekeke, PS) | 54%

Same assay, conditions: ASO, MM.1R, 0.666 µM

Sequence | target mRNA inhibition [%]
AGCACTGGCATTGAGA (sugars k3 d10 k3, PS) | 10

Same assay, conditions: ASO, MM.1R, 1 µM

Sequence | target mRNA inhibition
ACGCACCCGCAGCCCA (sugars k3 d10 k3, PS) | -10%
ACGGAAGTTTACACTG (sugars kkddddddddddkeke, PS) | 13%
ACGGAAGTTTACACTG (sugars kkdddddddddekeke, PS) | 8%
ACGGAAGTTTACACTG (sugars kkdddddddddkdkdk, PS) | -2%
ACGGAAGTTTACACTG (sugars kkkdddddddddkeke, PS) | 13%
ACGTGTGCTTGCCAAG (sugars kkddddddddddkeke, PS) | 6% and 26%
ACTGCTTGAGGTTTTC (sugars e1 k2 d9 k2 e2, PS) | 46%
ACTGCTTGAGGTTTTC (sugars k2 d9 e3 k2, PS) | 45%
ACTGCTTGAGGTTTTC (sugars k3 d9 k3 e1, PS) | 52%
ACTGCTTGAGGTTTTC (sugars kkkddddddddkekek, PS) | 32%
ACTGTTACCGATGCTT (sugars kddddddddddkekek, PS) | 20%
ACTGTTACCGATGCTT (sugars kkdddddddddekeke, PS) | 23% and 37%
ACTGTTACCGATGCTT (sugars kkdddddddddkdkdk, PS) | 22% and 31%
ACTTATTTGTGGCTCA (sugars k3 d10 k3, PS) | 36%
ACTTGCATCCATGTCA (sugars k3 d10 k3, PS) | 35%
ACTTGCTAAGTCTTAT (sugars k3 d10 k3, PS) | 13%
ACTTTTAGAGAGGAGA (sugars e1 k2 d9 k2 e2, PS) | 28%
ACTTTTAGAGAGGAGA (sugars k3 d9 k3 e1, PS) | 36%
ACTTTTAGAGAGGAGA (sugars kdddddddddkekeke, PS) | 17%
ACTTTTAGAGAGGAGA (sugars kkddddddddddkeke, PS) | 23%
ACTTTTAGAGAGGAGA (sugars kkdddddddddekeke, PS) | 52%
ACTTTTAGAGAGGAGA (sugars kkdddddddddkekek, PS) | 40%
AGAAACAGAGACGCGG (sugars k3 d10 k3, PS) | 11%
AGAACATTACGAGAGG (sugars k3 d10 k3, PS) | 41% and 51%

Sequence | target mRNA inhibition
AGAACTTGCTAAGTCT (sugars k3 d10 k3, PS) | -34%
AGACAGGTCTCTACCT (sugars k3 d10 k3, PS) | -12%
AGAGACGCGGTGAGAG (sugars k3 d10 k3, PS) | -20%
AGAGAGTCCGACGCAC (sugars k3 d10 k3, PS) | -18%
AGAGGCGACTGCTGAA (sugars k3 d10 k3, PS) | -19%
AGAGGTGCCTTCTTTA (sugars k3 d10 k3, PS) | 18%
AGATACAAAACGGACT (sugars k3 d10 k3, PS) | -15%
AGCAACTAGCAGGGCA (sugars k3 d10 k3, PS) | -2%
AGCAGTGATGTCAGGT (sugars k2 d9 e3 k2, PS) | 69% and 56%
AGCAGTGATGTCAGGT (sugars kkdddddddddekeke, PS) | 72% and 70% and 69%
AGCATTTTATCATCCG (sugars kddddddddddkekek, PS) | 36%
AGCATTTTATCATCCG (sugars kkdddddddddekeke, PS) | 46%
AGCATTTTATCATCCG (sugars kkkddddddddkekek, PS) | 22%
AGCCCTTGCTGCAAAT (sugars k3 d10 k3, PS) | -11%
AGCGACCCAAATGTGG (sugars k3 d10 k3, PS) | -2%
AGCTAGCGCGCACTAA (sugars k3 d10 k3, PS) | -8%
AGCTCAATAATCTCCC (sugars k3 d10 k3, PS) | 6%
AGCTTACTGTGATTCT (sugars k3 d10 k3, PS) | 13%
AGCTTGATAAAGGCTG (sugars e1 k2 d9 k2 e2, PS) | 1%
AGCTTGATAAAGGCTG (sugars k2 d9 e3 k2, PS) | 3%
AGCTTGATAAAGGCTG (sugars kkkdddddddddkeke, PS) | -8%
AGGCACATCAATGTTT (sugars kkdddddddddekeke, PS) | 42% and 35%
AGGCACATCAATGTTT (sugars kkdddddddddkekek, PS) | 16% and 19%
AGGTAAGATCTCCATG (sugars k3 d10 k3, PS) | 32%

Same assay, conditions: ASO, MM.1R, 2 µM

Sequence | target mRNA inhibition [%]
AGCACTGGCATTGAGA (sugars k3 d10 k3, PS) | 24

Same assay, conditions: ASO, MM.1R, 4 µM

Sequence | target mRNA inhibition
AGAACATTACGAGAGG (sugars k3 d10 k3, PS) | 65% and 66%
AGCAGTGATGTCAGGT (sugars kkdddddddddekeke, PS) | 86%

Same assay, conditions: ASO, SK-MEL-28, 0.185 µM

Sequence | target mRNA inhibition
AGCACTGGCATTGAGA (sugars k3 d10 k3, PS) | -4% and 10% and -11%

Same assay, conditions: ASO, SK-MEL-28, 4 µM

Sequence | target mRNA inhibition
ACCTGCATCGAGATCA (sugars k3 d10 k3, PS) | 53%
ACCTGGCAACCATTTT (sugars k4 d8 k4, PS) | 19%
ACCTTAACCAATCCCA (sugars k3 d10 k3, PS) | 71%
ACCTTATGCTTGGCTC (sugars k3 d10 k3, PS) | 31%
ACCTTTTTTGGCTCCC (sugars k3 d10 k3, PS) | 21%
ACGACTTAAGCTAAAC (sugars k3 d10 k3, PS) | 58%
ACGATGATAGCTCACC (sugars k3 d10 k3, PS) | 8%
ACGCAAGGCTCGGAGC (sugars k3 d10 k3, PS) | 21%
ACGCAGCCTCTAAGAA (sugars k3 d10 k3, PS) | 25%
ACGCCTTAATGTTCAG (sugars k3 d10 k3, PS) | 77%
ACGGAAGTTTACACTG (sugars k3 d10 k3, PS) | 77%
ACGGACGGAGGCGGCA (sugars k3 d10 k3, PS) | 11%
ACTAAGGACAGCTGTG (sugars k3 d10 k3, PS) | 15%
ACTCACTAAAGACTAT (sugars k3 d10 k3, PS) | 18%
ACTCATAGGTGTACAC (sugars k3 d10 k3, PS) | 45%
ACTCATGGAGGATCAT (sugars k3 d10 k3, PS) | 19%
ACTGAGTGTGCAGTTC (sugars k3 d10 k3, PS) | 36%
ACTTAGACATTACTAG (sugars k3 d10 k3, PS) | 20%
ACTTTTAGAGAGGAGA (sugars k3 d10 k3, PS) | 64%
AGACAAATCTTCTGCC (sugars k3 d10 k3, PS) | -4%
AGACATACCTACAAGC (sugars k3 d10 k3, PS) | 50%
AGACCAGGATTCGCCA (sugars k3 d10 k3, PS) | 33%
AGAGTGGGTGTTGGCC (sugars k3 d10 k3, PS) | 25%
AGAGTGGTACACCTCT (sugars k3 d10 k3, PS) | 22%
AGATATCCTGCAACTG (sugars k3 d10 k3, PS) | -9%
AGCAAACCCTGCACTC (sugars k3 d10 k3, PS) | 8%
AGCAAAGCAAGTGTCT (sugars k3 d10 k3, PS) | 58%
AGCAAGTGGAGGTCTT (sugars k3 d10 k3, PS) | 63%

Sequence | target mRNA inhibition
AGCAAGTGTCTTCCAC (sugars k3 d10 k3, PS) | 75% and 72%
AGCACCGTGTGGAAAG (sugars k3 d10 k3, PS) | 57%
AGCACTGGCATCGAGA (sugars k3 d10 k3, PS) | 59%
AGCACTGGCATTGAGA (sugars k3 d10 k3, PS) | 74%
AGCATTTTATCATCCG (sugars k3 d10 k3, PS) | 81%
AGCCAAAGTGACTTAA (sugars k3 d10 k3, PS) | 58%
AGCCAACTTATAGCAC (sugars k3 d10 k3, PS) | 54%
AGCCAAGAGGTGCGAG (sugars k3 d10 k3, PS) | 38%
AGCCAAGGAGGCGGGC (sugars k3 d10 k3, PS) | -1%
AGCCACGAGGCACCGC (sugars k3 d10 k3, PS) | 12%
AGCCATAGCAAATGGC (sugars k3 d10 k3, PS) | 5%
AGCTAGTTCATTCCCT (sugars k3 d10 k3, PS) | 48%
AGCTGAATGCTCTCCA (sugars k3 d10 k3, PS) | 78%
AGCTGTATTTATGCCC (sugars k3 d10 k3, PS) | 58%
AGCTTAGTCACCACGG (sugars k3 d10 k3, PS) | 67%
AGCTTGCAGGTCTGGT (sugars k3 d10 k3, PS) | 53%
AGGAAACCGCTGGCAG (sugars k3 d10 k3, PS) | 56%
AGGAACAATCCTGTAC (sugars k3 d10 k3, PS) | 16%
AGGAATGAGGAAGCCG (sugars k3 d10 k3, PS) | 56%
AGGAATGGCGGATAGA (sugars k3 d10 k3, PS) | 38%
AGGAGGGTTGGCCTGC (sugars k3 d10 k3, PS) | 4%
AGGATAATATACCCCA (sugars k3 d10 k3, PS) | 74%
AGGCACATGAGAAATC (sugars k3 d10 k3, PS) | 23%
AGGCGCGGACGCACGG (sugars k3 d10 k3, PS) | 31%
AGGCTCCTACCCGCCT (sugars k3 d10 k3, PS) | 6%
AGGGAGACAGCTCTAG (sugars k3 d10 k3, PS) | 25%
AGGTAAATCTTCACTG (sugars k3 d10 k3, PS) | 54%

Same assay, conditions: ASO, SK-MEL-28, 15 µM

Sequence | target mRNA inhibition
AGCACTGGCATTGAGA (sugars k3 d10 k3, PS) | 86% and 83% and 98%
